Assay results: patent US5948791A, “Quinoline derivatives for treating malaria” (Hoffmann-La Roche Inc., priority 1995, dated 1999)
Converted amounts (≈) assume the structure as drawn. Where a name gives a salt, the structure may show the parent alone. Read-outs that look alike come from different tables or passages of the source.

Legend:
[1] = test system: Plasmodium falciparum strain NF54; assay: Growth inhibition of Plasmodium falciparum NF54 (chloroquine-sensitive) in vitro, [G-3H]-hypoxanthin incorporation; format: cell-based; conditions: chloroquine-sensitive strain NF54, 72 h, read-out: IC50 for P. falciparum NF54
Excerpt: (§1) The ratio of the growth inhibition of a strain which is especially resistant to chloroquine and of a strain which is sensitive to chloroquine gives as the "resistance index" a measurement for the absence of a cross-resistance with chloroquine. Since, for all novel compounds the resistance index lies between 0.7 and 2.5, they inhibit the growth of sensitive as well as resistant strains of the malaria pathogen equally effectively. They are accordingly also suitable for the prophylaxis of a malaria disease and also for the treatment of a malaria disease even when chloroquine is ineffective. The good activity against malaria pathogens is also shown in animal experiments. The effective doses measured after oral and subcutaneous administration to mice infected with malaria pathogens are shown in Table 2 hereinafter.
(§2) Test method for the determination of the activity against Plasmodium falciparum in vitro
(§3) The preparations are tested on intraerythrocytary stages of Plasmodium falciparum from asynchronous cultures according to the method of Desjardin et al. (Desjardins, R. E. et al: Quantitative assessment of antimalarial activity in vitro by a semiautomated microdilution technique. Antimicrob. Agents Chemother. 16, 710-718, (1979)).
(§4) The culture medium consists of RPMI 1640 with the addition of 25 mM HEPES, 25 mM NaHCO3, 100 μg/ml neomycin and […] (A^+). Human-A^+ erythrocytes are used as the Plasmodium falciparum host cells. The parasites are maintained at 37° C. in an atmosphere of 3% O2, 4% CO2, 93% N2 and 95% relative humidity.
(§5) In order to determine the activity, the preparations are dissolved in DMSO, pre-diluted in the culture medium to a suitable starting concentration and subsequently titrated-out on to microtitre plates in the 2nd stage over 6-7 steps. After the addition of the parasite culture (0.7% parasitemia in 2.5% erythrocyte suspension) the test plates are incubated under the conditions given above for 72 h. The parasite growth in the different preparation concentrations is determined using [G-^3 H]-hypoxanthin incorporation compared to untreated control cultures on the same test plates. The 50% growth inhibition (IC50) is calculated according to logit regression analysis from the resulting dosage-activity curve.
(§6) The preparations are tested on at least one chloroquine-resistant and one chloroquine-sensitive Plasmodium falciparum strain. Additional sensitive and resistant strains are included for further characterization.

Plasmodium falciparum K1 = assay: Growth inhibition of Plasmodium falciparum K1 (chloroquine-resistant) in vitro, [G-3H]-hypoxanthin incorporation; format: cell-based, Plasmodium falciparum (strain K1); conditions: for IC50: Plasmodium falciparum, K1, 72 h, read-out: IC50 for P. falciparum K1; for Resistance index: ratio of the IC50 for K1 and the IC50 for NF54
Excerpt: as §1, §2, §3, §4, §5, §6

Plasmodium berghei = assay: animal or person; format: in vivo, Plasmodium berghei (strain ANKA) in mice; conditions: Plasmodium berghei, mice, blood smears 48 h after treatment
Method: Test method for the determination of the activity against Plasmodium berghei in vivo
The preparations are tested on mice infected with malaria pathogens (Plasmodium berghei). Male albino mice (IBM:MORO(SPF), FUELLINSDORF) weighing about 25 g are used as the test animals. They are kept in climatized rooms at 21-22° C. in groups of 5 animals per cage. They receive ad libitum a diet feed with a low PABA content (NAFAG FUTTER " No. 9009 PAB-45, PABA content 45 mg/kg) and drinking water. On the first day of the test (D0) the test animals are infected with Plasmodium berghei (strain ANKA). For this there is used heparinized blood of a donor mouse with about 30% parasitemia, which is diluted with physiological saline such that it contains 10^8 parasitized erythrocytes per ml. 0.2 ml of this suspension is injected intravenously (i.v.) into the mice to be treated and into the control mice.
The substances to be tested are dissolved or suspended in distilled water or in a mixture of 7% Tween 80, 3% alcohol (96%) and water. Usually, 0.25 ml of this solution or suspension is administered once subcutaneously and perorally to groups of 5 test animals. Treatment is effected 24 hours after the infection. 10 control animals are treated in the same manner with solvent or suspension medium per test.
All substances are tested in a first test in a single dosage of 10 mg/kg. Only those substances which in this test (10 mg/kg) have shown a parasitaemia reduction of 90% are used for the titration. Suitable dilutions of the test substance can be used to obtain an accurate titration of the activity.
48 hours after the treatment (D+3) blood smears are prepared from all animals using blood from tail veins and are stained with giemsa. […] The difference in the average values of the infection rates of control group (100%) and treated groups is calculated and expressed as a percentage reduction (GI%). The ED50 or ED90 is determined mathematically by means of the JMP programme (nonlinear fit). The ED50 (ED90) in mg/kg is that dose which after single administration reduces the average erythrocyte infection rate by 50% (90%) in comparison to the control group.

[2] = po, single peroral dose of 10 mg/kg, read-out: Growth inhibition in % after po administration (GI%, percentage reduction of the parasitemia)
[3] = sc, single subcutaneous dose of 10 mg/kg, read-out: Growth inhibition in % after sc administration (GI%, percentage reduction of the parasitemia)

| SMILES | IC50 [1] | IC50 (Plasmodium falciparum K1) | Resistance index (Plasmodium falciparum K1) | inhibition in vivo at 10 mg/kg (Plasmodium berghei; [2]) | inhibition in vivo at 10 mg/kg (Plasmodium berghei; [3]) |
| --- | --- | --- | --- | --- | --- |
| CSc1ccc(CN[C@H]2CC[C@@H](Nc3ccnc4cc(Cl)ccc34)CC2)cc1.Cl.Cl [Example 83, cis-N1-(7-Chloro-quinolin-4-yl)-N4-(4-methylsulphanyl-benzyl)-cyclohexane-1,4-diamine dihydrochloride] | 8.6 ng/mL | 5.9 ng/mL | 0.7 | 100% | 100% |
| Cl.Cl.Clc1ccc(CN[C@H]2CCCC[C@@H]2Nc2ccnc3cc(Cl)ccc23)c(Cl)c1 [Example 62, (1S,2S)-N1-(7-Chloro-quinolin-4-yl)-N2-(2,4-dichloro-benzyl)-cyclohexane-1,2-diamine dihydrochloride] | 50.8 ng/mL | 64.2 ng/mL | 1.3 | 99.8% | 99.8% |
| Cl.Cl.Clc1cccc(CN[C@H]2CC[C@@H](Nc3ccnc4cc(Cl)ccc34)CC2)c1 [Example 71, cis-N1-(7-Chloro-quinolin-4-yl)-N4-(3-chloro-benzyl)-cyclohexane-1,4-diamine dihydrochloride] | 7.1 ng/mL | 9.3 ng/mL | 1.3 | 99.8% | 99.9% |
| COc1ccc(CN[C@H]2CC[C@H](Nc3ccnc4cc(Cl)ccc34)CC2)cc1.Cl.Cl [Example 100, trans N1-(7-Chloro-quinolin-4-yl)-N4-(4-methoxy-benzyl)-cyclohexane-1,4-diamine dihydrochloride] | 1.9 ng/mL | 4 ng/mL | 2.1 | 14% | 99% |
| Cl.Cl.Clc1ccc2c(N[C@H]3CC[C@@H](NCc4ccc(-c5ccccc5)cc4)CC3)ccnc2c1 [Example 87, cis-N1-(7-Chloro-quinolin-4-yl)-N4-(biphenyl-4-yl-methyl)-cyclohexane-1,4-diamine dihydrochloride] | 6.2 ng/mL | 10.2 ng/mL | 1.6 | 98% | 94% |
| Cl.Cl.Clc1ccc2c(N[C@H]3CC[C@@H](NCc4ccc(Cl)c(Cl)c4)CC3)ccnc2c1 [Example 74, cis-N1-(7-Chloro-quinolin-4-yl)-N4-(3,4-dichloro-benzyl)-cyclohexane-1,4-diamine dihydrochloride] | 23.3 ng/mL | 14.5 ng/mL | 0.6 | 83% | 84% |
| CC(C)(CNc1ccnc2cc(Cl)ccc12)NCc1ccnc2ccccc12.Cl.Cl.Cl [Example 58, N1-(7-Chloro-quinolin-4-yl)-N2-(quinolin-4-yl-methyl)-2-methyl-propane-1,2-diamine trihydrochloride] | 29.3 ng/mL | 69 ng/mL | 2.4 | 72% | 88% |
| CC(C)(CNc1ccnc2cc(Cl)ccc12)NCc1cccc(Cl)c1 [Example 4, N1-(7-Chloro-quinolin-4-yl)-N2-(3-chloro-benzyl)-2-methyl-propane-1,2-diamine] | 9.1 ng/mL (≈ 0.0243 µM) | 8.8 ng/mL (≈ 0.0235 µM) | 1.0 | 68% | 73% |
| CN(C)c1ccc(CN[C@H]2CCCC[C@@H]2Nc2ccnc3cc(Cl)ccc23)cc1.Cl.Cl [Example 66, (1S,2S)-N1-(7-Chloro-quinolin-4-yl)-N2-(4-dimethylamino-benzyl)-cyclohexane-1,2-diamine dihydrochloride] | 5.6 ng/mL | 10.5 ng/mL | 1.9 | 99.9% | 99.6% |
| CCN(CC)c1ccc(CN[C@H]2CC[C@@H](Nc3ccnc4cc(Cl)ccc34)CC2)cc1.Cl.Cl.Cl [Example 85, cis-N1-(7-Chloro-quinolin-4-yl)-N4-(4-diethylamino-benzyl)-cyclohexane-1,4-diamine trihydrochloride] | 4.6 ng/mL | 3.9 ng/mL | 0.8 | 99.9% | 100% |
| CC(C)(CNc1ccnc2cc(Cl)ccc12)NCc1ccc(Cl)cc1 [Example 25, N1-(7-Chloro-quinolin-4-yl)-N2-(4-chloro-benzyl)-2-methyl-propane-1,2-diamine dihydrochloride] | 17.3 ng/mL | 12.9 ng/mL | 0.7 | 99.2% | 99.8% |
| CSc1ccc(CNC(C)(C)CNc2ccnc3cc(Cl)ccc23)cc1.Cl.Cl [Example 44, N1-(7-Chloro-quinolin-4-yl)-N2-(4-methylsulphanyl-benzyl)-2-methyl-propane-1,2-diamine dihydrochloride] | 10.8 ng/mL | 15.4 ng/mL | 1.4 | 98% | 99% |
| CC(C)(CNc1ccnc2cc(Cl)ccc12)NCc1ccncc1 [Example 11, N1-(7-Chloro-quinolin-4-yl)-N2-(pyridin-4-yl-methyl)-2-methyl-propane-1,2-diamine] | 29.3 ng/mL (≈ 0.086 µM) | 48 ng/mL (≈ 0.141 µM) | 1.6 | 99.9% | 99.8% |
| CC(C)(CNc1ccnc2cc(Cl)ccc12)NCc1ccc(Cl)cc1Cl [Example 5, N1-(7-Chloro-quinolin-4-yl)-N2-(2,4-dichloro-benzyl)-2-methyl-propane-1,2-diamine] | 49.3 ng/mL (≈ 0.121 µM) | 57.2 ng/mL (≈ 0.14 µM) | 1.2 | 83% | 69% |
| COc1cc(CCN[C@H]2CC[C@H](Nc3ccnc4cc(Cl)ccc34)CC2)cc(OC)c1.Cl.Cl [Example 94, trans-N1-(7-Chloro-quinolin-4-yl)-N4-[2-(3,5-dimethoxy-phenyl)-ethyl]-cyclohexane-1,4-diamine dihydrochloride] | 2.9 ng/mL | 9.8 ng/mL | 3.4 | 99% | 99.9% |
| COc1cc(CNC(C)(C)CNc2ccnc3cc(Cl)ccc23)ccc1O.Cl.Cl [Example 33, N1-(7-Chloro-quinolin-4-yl)-N2-(4-hydroxy-3-methoxy-benzyl)-2-methyl-propane-1,2-diamine dihydrochloride] | 6.3 ng/mL | 7.1 ng/mL | 1.1 | 10% | 97% |
| COc1ccc(CN[C@H]2CC[C@@H](Nc3ccnc4cc(Cl)ccc34)CC2)cc1.Cl.Cl [Example 21, cis-N1-(7-Chloro-quinolin-4-yl)-N4-(4-methoxy-benzyl)-cyclohexane-1,4-diamine dihydrochloride] | 5.1 ng/mL | 9.3 ng/mL | 1.8 | 99.9% | 100% |
